According to patent US5679638A, “Method for treating a tumor with a chemotherapeutic agent” (Biopure Corporation, priority 1993, dated 1997):

Assays:
FSaIIC tumor cells = test: FSaIIC tumor excision / colony forming assay (tumor cell killing); type: in vivo, mouse; conditions: for FSaIIC cell killing by drug, dose dependence: drug alone, increasing dose; for Enhancement of tumor cell killing by UPHS at higher drug doses: higher doses of drug + UPHS vs drug alone
Protocol: The procedures and materials of Example I were employed, except as noted. In this Example, tumors were allowed to grow to approximately 100 mm^3 in volume, which took about one week after tumor cell implantation. At this time, 0.3 ml of UPHS was injected via the tail vein. Immediately afterward, PAM was administered by intraperitoneal injection. The animals were then allowed to breathe air or were placed in a circulating atmosphere of carbogen for 6 hours and then removed to air. The mice were sacrificed 24 hours after treatment to allow for full expression of drug cytotoxicity and repair of potentially lethal damage. The tumors were excised under sterile conditions and single cell suspensions were prepared for a colony forming assay. See Teicher, B. A. et al., "Approaches to Defining the Mechanism of Fluosol-DA 20%/Carbogen Enhancement of Melphalan Antitumor Activity", Cancer Res. 47:513-518 (1987); Teicher, B. A. et al., "Differential Enhancement of Melphalan Cytotoxicity in Tumor and Normal Tissue by Fluosol-DA and Oxygen Breathing", Int. J. Cancer 36:585-589 (1985); Teicher, B. A. et al., "Effects of Various Oxygenation Conditions on the Enhancement by Fluosol-DA of Melphalan Antitumor Activity", Cancer Res. 47:5036-5041 (1987); Teicher, B. A. and S. A. Holden, "A Survey of the Effect of Adding Fluosol-DA 20%/O2 to Treatment with Various Chemotherapeutic Agents", Cancer Treat. Rep. 71:173-177 (1987), Teicher, B. A. et al., "Effect of Various Oxygenation Conditions and Fluosol-DA on Cancer Chemotherapeutic Agents", Biomat., Art. Cells and Art. Organs 16:533-546 (1988). One week later, the plates were stained with crystal violet and colonies of more than 50 cells were counted.
The result for the tumor excision assays and bone marrow toxicity tests with PAM are plotted in FIG. 1 wherein the surviving fraction +SE of cells from the treated groups are compared to untreated controls.
The procedures and materials of Example II were employed except that CTX was administered instead of PAM.

[1] = test system: bone marrow granulocyte-macrophage colony forming units (CFU-GM); test: Bone marrow toxicity, CFU-GM colony forming assay; type: in vivo, mouse; conditions: drug + UPHS vs drug alone; PAM across entire dosage range
Protocol: The procedures and materials of Example I were employed, except as noted. In this Example, tumors were allowed to grow to approximately 100 mm^3 in volume, which took about one week after tumor cell implantation. At this time, 0.3 ml of UPHS was injected via the tail vein. Immediately afterward, PAM was administered by intraperitoneal injection. The animals were then allowed to breathe air or were placed in a circulating atmosphere of carbogen for 6 hours and then removed to air. The mice were sacrificed 24 hours after treatment to allow for full expression of drug cytotoxicity and repair of potentially lethal damage. The tumors were excised under sterile conditions and single cell suspensions were prepared for a colony forming assay. […] One week later, the plates were stained with crystal violet and colonies of more than 50 cells were counted.
Bone marrow toxicity was determined as follows. […] Colonies of at least 50 cells were scored on an acculite colony counter (Fisher, Springfield, N.J.). The results from three experiments, in which each group was measured in triplicate, were averaged. […]

FSaIIC fibrosarcoma [2] = conditions: cited from earlier work
FSaIIC fibrosarcoma [3] = test: FSaIIC fibrosarcoma tumor growth delay; type: in vivo, mouse (male C3H/FeJ mice); conditions: PAM 10 mg/kg + Fluosol-DA, carbogen 1 hour

Row | SMILES | Increase in killing of FSaIIC cells by addition of UPHS (FSaIIC tumor cells; CTX 100 mg/kg + UPHS vs CTX alone) | Greater kill of FSaIIC tumor cells with combined treatment (FSaIIC tumor cells; CTX 500 mg/kg (highest dose) + UPHS vs CTX alone) | FSaIIC cell killing by drug, dose dependence (FSaIIC tumor cells) | Enhancement of tumor cell killing by UPHS at higher drug doses (FSaIIC tumor cells) | Increase in bone marrow CFU-GM killing / toxicity by addition of UPHS [1] | Duration of carbogen breathing necessary for significant enhancement of growth delay (FSaIIC fibrosarcoma [2]; FSaIIC, CTX) | Increase in tumor cell killing by addition of UPHS (FSaIIC tumor cells; PAM 10 mg/kg + UPHS vs PAM alone) | Effect of extending carbogen breathing to 6 hours on tumor growth delay (FSaIIC fibrosarcoma [2]; PAM + Fluosol-DA, carbogen 6 hours) | Tumor growth delay, PAM prepared in Fluosol-DA as a vehicle (FSaIIC fibrosarcoma [2]; PAM in Fluosol-DA vehicle, carbogen breathing) | Tumor growth delay, with Fluosol-DA and carbogen (FSaIIC fibrosarcoma [3])
1 | O=P1(N(CCCl)CCCl)NCCCO1 (stereo not shown) [CTX, Cyclophosphamide] | ~20 fold | about 9 fold | killed increasing numbers of FSaIIC cells with increasing doses | the differential between tumor cell kill by CTX alone and CTX plus UPHS decreased as the dose of CTX was increased | 2-3 fold | Six hours of carbogen breathing are necessary to obtain a significant enhancement in the growth delay |  |  |  | 
2 | N[C@@H](Cc1ccc(N(CCCl)CCCl)cc1)C(=O)O [PAM, Melphalan] |  |  | killed FSaIIC cells in a log-linear manner with increasing dose | the enhancement in tumor cell killing with the combination treatment disappeared | 3 fold |  | ~10 fold | did not alter the tumor growth delay | about 29.5 days | about 9.5 days
